In US20200240980A1, “METHOD FOR DELAYED RECTIFIER CURRENT ENHANCEMENT, CHARACTERIZATION, AND ANALYSIS IN HUMAN INDUCED PLURIPOTENT STEM CELLS” (The Research Foundation for The State University of New York, priority 2017, published 2020):

System: IKr expression in human iPSCDCMs
Experiment: IKr expression in human iPSCDCMs after 48 hour treatment with Endo-Porter transfected morpholino AS oligonucleotide, whole-cell patch clamp
Assay type: cell-based
Source text: Our approach is based on studies showing that morpholino anti-sense (AS) oligonucleotides increased HERG expression in HEK293 cells. We examined the ability of these endoporter (Endo-Porter delivery system) transfected morpholino AS oligonucleotides to increase IKr expression in human iPSCDCMs. The morpholino AS oligonucleotide Endo-Porter, is a proprietary weak-base amphiphilic peptide that was designed to deliver non-ionic substances into the cytosol/nuclear compartment of cells by an endocytosis-mediated process. Following a 48 hour treatment with morpholino AS oligonucleotide (alpha2NS 05Z) significant increase (p<0.05) in IKr expression was observed compared to naïve/vehicle and an inverse morpholino AS oligonucleotide control (MPL ZN9DSZ INV) (Morpholino AS oligonucleotide (n=28): 0.29±0.04 pA/pF, INV control (n=7): 0.11±0.08 pA/pF). […] In naïve/vehicle treated cells we observed a near equal frequency of cells expressing current densities <0.2 pA/pF and >0.2 pA/pF. However, following morpholino AS oligonucleotide treatment cells expressing current densities >0.2 pA/pF increased to 71% p<0.05 as shown in FIG. 4.

**Q.** Which results are given for “5′-CAGAACACAGTAGTGAATCAAAACC-3′ (all phosphorodiamidate morpholino (PMO)) [alpha2NS 05Z, morpholino anti-sense oligonucleotide specific for a polyadenylation signal in Intron 9 of the KCNH2 gene]”?
**A.** cells expressing IKr current densities >0.2 pA/pF (hiPSCDCMs after morpholino AS oligonucleotide treatment, p<0.05, near equal frequency in naïve/vehicle cells, FIG. 4): 71%; IKr current density (hiPSCDCMs, 48 hour treatment, mean ± spread, n=28 (morpholino AS), n=7 (INV control)): 0.29±0.04 pA/pF; distribution of IKr current densities ≤0.2 pA/pF or >0.2 pA/pF versus naïve/vehicle cells (hiPSCDCMs, p<0.05, FIG. 4): significant shift
